Values quoted from earlier work in patent US5268391A, “Propargyl-terminated cycloalkylalkyl-P2-site substituted aryl/alkylsulfonyl-terminated alanine amino-diol compounds for treatment of hypertension” (C. D. Searle & Co., priority 1992, dated 1993).
Where a SMILES comes first, the peptide text is derived from it. [ ]: non-standard residue; d: D form. The star is where a group is joined. Sta = CC(C)C[C@H](N)[C@@H](O)CC(=O)O; Isovaleryl = CC(C)CC(=O)*

System: hog renin
Details: after the injection of hog renin into nephrectomized rats

## CC(C)CC(=O)N[C@H](C(=O)N[C@H](C(=O)N[C@@H](CC(C)C)[C@@H](O)CC(=O)N[C@@H](C)C(=O)N[C@@H](CC(C)C)[C@@H](O)CC(=O)O)C(C)C)C(C)C [pepstatin] (Isovaleryl-VV[Sta]A[Sta]-OH)
  blood pressure in vivo: reduce blood pressure
